US11298339B2 (priority 2017, dated 2022)

Columns and labels:
Assay type in all cases: in vivo, C57BL/6J mice
[1] = target: T1, cIAP2 (Mus musculus, UniProt O08863); assay: Western blot of cIAPs molecules in liver tissue after Compound 1 injection; details: 10 mg/kg i.v.
T1 construct: Western blot was used to detect the expression of cIAPs molecules in liver tissues; from tissue; host or cells: liver tissue of C57BL/6J mice (HBV model, pAAV-HBV1.2)
Text: (§1) Chronic HBV infection mouse models were established by high-pressure tail vein injection of pAAV-HBV1.2 plasmid or recombinant virus rAAV8-1.3HBV injection of C57BL/6J mice (6 to 8 weeks of age, weight 20 f 2 g). […] Glutamic-oxalacetic transaminase (AST/GOT) kit (Nanjing Jiancheng, C010-2) and glutamic-pyruvic transaminase (ALT/GPT) kit (Nanjing Jiancheng, C009-2) were used to detect serum ALT and AST levels. Western blot was used to detect the expression of cIAPs molecules in liver tissues, and β-actin was used as a control. Intrahepatic inflammation and hepatocyte necrosis were detected by HE staining of liver tissue sections.

[2] = system: HBV; assay: Compound 1 alone in chronic HBV infection mouse model (high-pressure tail vein injection of pAAV-HBV1.2 plasmid)
Experimental: Male C57/B6 mice (6-8 weeks of age, body weight 20 f 2 g) were selected to establish a high-pressure tail vein injection mouse model, in which the tail of mice was wiped with 75% alcohol, and then irradiated with a far-infrared physiotherapy device for 2 to 3 minutes so that the tail vein of mice was turgid and clearly visible. […] Each mouse was injected with 10 μg of pAAV/HBV1.2 plasmid, and the amount of injection liquid (PBS) was 10% of body weight (2 mL/20 g). On the 14th day after the injection, blood was collected to detect HBsAg, and the successfully modeled mice with HBsAg>500 IU/ml were selected for further experiments (Huang, Wu et al. 2006; Chou, Chien et al. 2015). […] There were 6-8 mice in each group, which were administered once a week for 4 consecutive times and observed for 7 weeks.
After the mice serum were diluted 20-fold with PBS, the HBsAg and HBeAg titers of the serum were detected by using Abbott i2000SR microparticle chemiluminescence automatic detector. The serum HBV DNA was extracted by QIAamp DNA Mini Kit (Qiagen), the HBV DNA level in serum was quantified by Realtime-PCR (LightCycler 480, Roche) using DNA Amplification SYBR Green Kit (Roche), and the HBV plasmid PSM2 products with a series of concentration gradients were used as standards. The HBV primers used in this experiment were synthesized by Invitrogen (Shanghai) Trading Co., Ltd., and the primer sequences were as follows: HBV Hope-F (5′ to 3′ […]) and HBV Hope-R (5′ to 3′ […]). The liver tissues of mice were subjected to conventional formalin-fixation and paraffin-embedding, the resultant 4 μm sections were baked at 65° C. for 2 h, dehydrated with conventional ethanol gradients, infiltrated with hydrogen peroxide at room temperature for 30 min, washed with PBS for 5 min/time, 3 times in total, and blocked at room temperature for 1 h. After rabbit-anti-human HBcAg (B0586, DAKO) was added and incubated in a wet box at room temperature for 1 h, a GTvision III immunohistochemical detection kit of anti-rabbit anti-mice general type (GK50075, Shanghai Gene Technology Co., Ltd.) was used for incubation of secondary antibodies and development of color, and pictures at 200× magnification were taken with a normal optical upright microscope. 60 mg of liver tissue homogenate was weighed, added with 900 μl of lysate (50 mmol/L Tris-HCl PH 7.5+1 mmol/L EDTA), placed on ice, and after all samples were processed, 5 μl of […] was added and lysis was performed on ice, and then HBV DNA in liver tissue was extracted with phenol/chloroform, dissolved by adding 15 μl of RNase free water, run on a 1% agarose gel, transferred to membrane; then a full-length HBV probe labeled with digoxin was added, stood overnight at 46° C., subjected to DIG Washing Buffer once for 5 min, added with Anti-Digoxigenin-Ap Fab fragment (11093274910, Roche), and Image Quant LAS 4000mini was used for exposure and detection.

[3] = system: HBV; assay: Compound 1 in combination with TDF in pAAV-HBV1.2 high-pressure tail vein injection mouse model; details: Compound 1 10 mg/kg i.v. weekly x4; TDF 53 mg/kg gavage daily 10 days; observed 7 weeks
Experimental: After the mice serum were diluted 20-fold with PBS, the HBsAg and HBeAg titers of the serum were detected by using Abbott i2000SR microparticle chemiluminescence automatic detector. The serum HBV DNA was extracted by QIAamp DNA Mini Kit (Qiagen), the HBV DNA level in serum was quantified by Realtime-PCR (LightCycler 480, Roche) using DNA Amplification SYBR Green Kit (Roche), and the HBV plasmid PSM2 products with a series of concentration gradients were used as standards. The HBV primers used in this experiment were synthesized by Invitrogen (Shanghai) Trading Co., Ltd., and the primer sequences were as follows: HBV Hope-F (5′ to 3′ […]) and HBV Hope-R (5′ to 3′ […]). The liver tissues of mice were subjected to conventional formalin-fixation and paraffin-embedding, the resultant 4 μm sections were baked at 65° C. for 2 h, dehydrated with conventional ethanol gradients, infiltrated with hydrogen peroxide at room temperature for 30 min, washed with PBS for 5 min/time, 3 times in total, and blocked at room temperature for 1 h. […]

[4] = system: HBV; assay: Compound 1 in combination with anti-PD1 antibody in chronic HBV infection mouse model (pAAV-HBV1.2 plasmid)
Text: Among them, there were 7 mice in each group.

[5] = system: HBV; assay: Compound 1 in combination with IFNα2a in chronic HBV infection mouse model (pAAV-HBV1.2 plus pKCMvint IFNα-2a or control plasmid)
Experimental: One day after modeling, the mice were divided into 4 groups. […] There were 5 mice in each group (except Group D that included 7 mice), the administration was performed for consecutive 3 times, i.e., on the day 1 after modeling, and on the days 7 and 14 after modeling; blood was collected once at orbital margin one day before the administration, and serum HBsAg/HBeAg levels were detected using Roche 601 instrument.

[6] = Liver damage after Compound 1 injection in HBV-infected mice (serum ALT/AST, HE staining of liver sections)
Text: as §1

[7] = system: HBV; assay: Compound 1 and SF18 in mouse model established by rAAV8-HBV1.3 (ayw) virus tail vein injection; details: 20 mg/kg i.v.
Experimental: Among them, there were 3 mice in each group. Administration was carried out for consecutive four weeks, blood was collected at orbital margin once per week, and HBsAg/HBeAg levels in supernatant were detected by Roche 601 instrument.

[8] = system: HBV-specific T cell response; assay: HBV immune response in mice: liver lymphocyte counts and HBV-specific T cell response (flow cytometry, Core93-100 stimulation); details: 20 mg/kg once a week x4, 7th week
Experimental: There were 5 to 6 mice in each group, which were administered once a week for four consecutive times, and sacrificed on the 7th week, the mice liver lymphocytes were isolated, and cell counts and flow cytometry were used to detect the expression of CD4 and CD8 molecules in lymphocytes in the liver. The detection of HBV-specific T cell response was performed by using HBV core monopeptide (Core93-100) to stimulate lymphocytes, and the counts of CD4+ and CD8+ T cells that secreted IFNγ, TNFα and IL-2 were detected by flow cytometry cytokine intracellular staining method.

[9] = system: HBV; assay: Comparison of Compound 1 and Birinapant in chronic HBV infection mouse model (pAAV-HBV1.2 plasmid); details: for proportion of mice with serum HBsAg levels below the lower limit of detection: after 4 weeks of administration; for serum HBsAg level (individual): after one week of drug treatment
Experimental: Among them, there were 7 mice in each of Group A and Group B, and 6 mice in Group C. Compound 1 and Birinapant were administered once a week for five consecutive weeks. Blood was collected at orbital margin each week before the administration, and the HBsAg/HBeAg levels in supernatant were detected using Roche 601 instrument.

[10] = system: HBcAg-positive liver cells; assay: Apoptosis of HBV-infected liver cells, HBcAg immunofluorescence and Tunnel double staining, rAAV8-HBV1.3 virus injection mouse model; details: 20 mg/kg i.v.; 12 h after injection
Text: as §1

[11] = 20 mg/kg i.v. once a week x4, on the 5th week, faster than 10 mg/kg group
[12] = Compound 1 injection groups (10 and 20 mg/kg i.v., once a week x4), up to the 7th week
[13] = Compound 1 20 mg/kg i.v. once per week, anti-PD1 antibody 200 μg/mice/time i.p. twice per week, five weeks
[14] = 10 mg/kg i.v., 12, 24, 48 hours after injection
[15] = stimulation with HBV core monopeptide (Core93-100)

T1 sequence (O08863 whole entry): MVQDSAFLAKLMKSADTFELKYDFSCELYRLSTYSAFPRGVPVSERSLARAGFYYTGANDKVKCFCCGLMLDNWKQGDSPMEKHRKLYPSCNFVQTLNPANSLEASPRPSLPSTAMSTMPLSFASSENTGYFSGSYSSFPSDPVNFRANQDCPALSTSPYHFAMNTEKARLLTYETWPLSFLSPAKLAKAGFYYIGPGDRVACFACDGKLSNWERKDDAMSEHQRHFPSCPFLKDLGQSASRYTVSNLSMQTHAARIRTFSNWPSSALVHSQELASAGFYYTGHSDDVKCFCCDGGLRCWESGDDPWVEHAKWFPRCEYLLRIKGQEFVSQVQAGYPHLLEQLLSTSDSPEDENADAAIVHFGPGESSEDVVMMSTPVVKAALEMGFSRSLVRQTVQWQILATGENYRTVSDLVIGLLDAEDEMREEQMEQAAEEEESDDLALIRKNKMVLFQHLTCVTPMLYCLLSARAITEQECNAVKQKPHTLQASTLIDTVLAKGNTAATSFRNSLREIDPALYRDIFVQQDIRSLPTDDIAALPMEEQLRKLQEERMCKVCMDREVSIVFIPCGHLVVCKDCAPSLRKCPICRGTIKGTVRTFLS

## CN[C@@H](C)C(=O)N[C@H]1CN(S(=O)(=O)c2cccc(S(=O)(=O)N3CC[C@H]4CC[C@@H](C(=O)NC(c5ccccc5)c5ccccc5)N4C(=O)[C@@H](NC(=O)[C@H](C)NC)C3)c2)CC[C@H]2CCC(C(=O)NC(c3ccccc3)c3ccccc3)N2C1=O (stereo partly drawn) [Compound 1]
[1]
  time at which inhibition of cIAP2 reached the strongest value: 12 h
[1]; 12, 24, 48 h
  inhibitory effect on cIAP2 in liver tissues (Western blot): strong inhibitory effect
[2]; [11]
  serum HBV DNA: completely eliminated
  serum HBsAg: completely eliminated
[2]; 7 weeks after administration, compared with saline group
  HBV replication intermediate in liver tissue (Southern blot): no HBV replication intermediate was detected
[2]; [12]
  serum HBV DNA: below the detection limit
  serum HBsAg: below the detection limit
[2]; after 7 weeks of administration
  HBcAg expression in liver (immunohistochemical staining): not observed
[3]
  serum HBsAg clearance rate in comparison with control group: statistically significant differences
[4]; 1st and 2nd weeks (P 0.029, 0.009)
  serum HBeAg (individual) compared with Group A (saline): statistically significant differences
[4]; 1st and 2nd weeks, P week 1 0.016 (Group B), 0.007 (Group D), week 2 0.007, 0.002
  serum HBeAg compared with Group C (anti-PD1 antibody): decreased more significantly
[4]; [13]
  serum HBeAg level (overall): significantly reduce
  serum HBsAg level (overall): significantly reduce
[5]; 21st day, P 0.008
  serum HBsAg compared with Group C (IFNα-2a): decreased significantly
[5]; days 7, 14, 21 (P 0.004 on 7th day, 0.021 on 7th day as printed, 0.001 on 21st day)
  serum HBeAg compared with Group A (saline): statistically significant differences
[5]; days 7, 14, 21 (P 0.010, 0.008, 0.004), Compound 1 10 mg/kg i.v. days 1, 7, 14, IFNα-2a plasmid-expressed
  serum HBsAg compared with Group A (saline): statistically significant differences
[6]; 10 mg/kg i.v.
  time at which serum ALT returned to normal levels: around 48 hours
  time at which serum ALT rose to the highest value: 12 h
  time at which serum AST returned to normal levels: around 48 hours
  time at which serum AST rose to the highest value: 12 h
[6]; [14]
  serum ALT change after injection: transient increase
  serum AST change after injection: transient increase
[6]; 10 mg/kg i.v., 12 hours after injection, vicinity of portal areas, with lymphocyte infiltration
  liver tissue HE staining: scattered necrotic lesions
[6]; after Compound 1 injection, only transient intrahepatic inflammation
  intrahepatic inflammation / fulminant hepatitis: did not cause fulminant hepatitis
[7]; four weeks
  anti-HBV effect (conclusion): anti-HBV effect
[8]
  count of infiltrated CD4+ T cells in the liver vs control: significantly increased
  count of infiltrated CD8+ T cells in the liver vs control: significantly increased
  total lymphocyte number in the liver vs normal saline control: significantly higher
[8]; [15]
  counts of CD4+ T cells that secreted IFNγ, TNFα and IL-2: increased significantly
  counts of CD8+ T cells that secreted IFNγ, TNFα and IL-2: increased significantly
[9]; 20 mg/kg i.v. once a week, five weeks
  clearance effect of HBsAg (overall level) vs saline injection group: statistically significant difference
[9]; 20 mg/kg i.v. once a week
  proportion of mice with serum HBsAg levels below the lower limit of detection: 86%
[9]; 20 mg/kg i.v.
  serum HBsAg level (individual): decreased significantly
[9]; 20 mg/kg i.v., after one week, p=0.035
  serum HBsAg level compared with Brinapant group: significantly lower than that of the Brinapant group
[9]; same dosage and mode of administration (20 mg/kg i.v.)
  clearance effect of HBsAg and HBeAg, overall comparison: superior to Birinapant
[10]
  apoptosis of HBcAg-positive liver cells: could be induced

## CC[C@H](NC(=O)[C@H](C)NC)C(=O)N1C[C@@H](O)C[C@H]1Cc1c(-c2[nH]c3cc(F)ccc3c2C[C@@H]2C[C@H](O)CN2C(=O)[C@H](CC)NC(=O)[C@H](C)NC)[nH]c2cc(F)ccc12 [Birinapant, reference compound]
[9]; 20 mg/kg i.v. once a week
  proportion of mice with serum HBsAg levels below the lower limit of detection: 57%
[9]; 20 mg/kg i.v.
  serum HBsAg level (individual): decreased significantly

## CN[C@@H](C)C(=O)N[C@H]1CN(C(=O)Nc2ccc(NC(=O)N3CC[C@H]4CC[C@@H](C(=O)NC(c5ccccc5)c5ccccc5)N4C(=O)[C@@H](NC(=O)[C@H](C)NC)C3)cc2)CC[C@H]2CC[C@@H](C(=O)NC(c3ccccc3)c3ccccc3)N2C1=O [SF18]
[7]; 3 mice in the group
  deaths during administration: one mice died on the 2nd week and 4th week
[7]; four weeks
  anti-HBV effect (conclusion): stronger than that of Compound 1
  decrease rate of HBeAg in mice serum: significantly faster than those of the Compound 1 group
  decrease rate of HBsAg in mice serum: significantly faster than those of the Compound 1 group
